Calls of active or inactive are those of the source. The rule behind the calls is not given here.
Tested on: CCRIS mutagenicity, Ames/micronucleus/aberration tests
Experiment: CCRIS mutagenicity studies

Nc1ccc(-c2ccc(N)cc2)cc1
mutagenic call (End Point: IN VITRO CHROMOSOMAL ABERRATIONS, Test System: CHINESE HAMSTER OVARY CELLS, Metabolic Activation: NONE): inactive; negative
mutagenic call (End Point: IN VITRO CHROMOSOMAL ABERRATIONS, Test System: CHINESE HAMSTER OVARY CELLS, Metabolic Activation: RAT, LIVER, S-9, AROCLOR 1254): active; positive
mutagenic call (Test System: AMES SALMONELLA TYPHIMURIUM, Strain/Indicator: DJ400, Metabolic Activation: HUMAN, HEPATOMA CELLS, BENZO[A]ANTHRACENE, Method: PREINCUBATION): active; positive
mutagenic call (Test System: AMES SALMONELLA TYPHIMURIUM, Strain/Indicator: DJ400, Metabolic Activation: HUMAN, HEPATOMA CELLS, Method: PREINCUBATION): active; positive
mutagenic call (Test System: AMES SALMONELLA TYPHIMURIUM, Strain/Indicator: DJ400, Metabolic Activation: RAT, LIVER, S-9, AROCLOR 1254, Method: PREINCUBATION): active; positive
mutagenic call (Test System: AMES SALMONELLA TYPHIMURIUM, Strain/Indicator: DJ400, Metabolic Activation: RAT, LIVER, S-9, Method: PREINCUBATION): active; positive
mutagenic call (Test System: AMES SALMONELLA TYPHIMURIUM, Strain/Indicator: DJ400, Metabolic Activation: TOBACCO TX1 CELLS, Method: PREINCUBATION): inactive; negative
mutagenic call (Test System: AMES SALMONELLA TYPHIMURIUM, Strain/Indicator: DJ460, Metabolic Activation: HUMAN, HEPATOMA CELLS, BENZO[A]ANTHRACENE, Method: PREINCUBATION): active; positive
mutagenic call (Test System: AMES SALMONELLA TYPHIMURIUM, Strain/Indicator: DJ460, Metabolic Activation: HUMAN, HEPATOMA CELLS, Method: PREINCUBATION): active; positive
mutagenic call (Test System: AMES SALMONELLA TYPHIMURIUM, Strain/Indicator: DJ460, Metabolic Activation: RAT, LIVER, S-9, AROCLOR 1254, Method: PREINCUBATION): active; positive
mutagenic call (Test System: AMES SALMONELLA TYPHIMURIUM, Strain/Indicator: DJ460, Metabolic Activation: RAT, LIVER, S-9, Method: PREINCUBATION): active; positive
mutagenic call (Test System: AMES SALMONELLA TYPHIMURIUM, Strain/Indicator: DJ460, Metabolic Activation: TOBACCO CELL-FREE EXTRACT, Method: PREINCUBATION): active; positive
mutagenic call (Test System: AMES SALMONELLA TYPHIMURIUM, Strain/Indicator: DJ460, Metabolic Activation: TOBACCO TX1 CELLS, Method: PREINCUBATION): active; positive
mutagenic call (Test System: AMES SALMONELLA TYPHIMURIUM, Strain/Indicator: MP110, Metabolic Activation: TOBACCO TX1 CELLS, Method: PREINCUBATION): inactive; negative
mutagenic call (Test System: AMES SALMONELLA TYPHIMURIUM, Strain/Indicator: MP120, Metabolic Activation: TOBACCO TX1 CELLS, Method: PREINCUBATION): inactive; negative
mutagenic call (Test System: AMES SALMONELLA TYPHIMURIUM, Strain/Indicator: MP208, Metabolic Activation: TOBACCO CELL-FREE TXIMX, Method: PREINCUBATION): active; positive
mutagenic call (Test System: AMES SALMONELLA TYPHIMURIUM, Strain/Indicator: MP219, Metabolic Activation: TOBACCO CELL-FREE TXIMX, Method: PREINCUBATION): active; positive
mutagenic call (Test System: AMES SALMONELLA TYPHIMURIUM, Strain/Indicator: SV50, Metabolic Activation: HAMSTER, LIVER, S-9, Method: STANDARD PLATE): inactive; negative
mutagenic call (Test System: AMES SALMONELLA TYPHIMURIUM, Strain/Indicator: SV50, Metabolic Activation: NONE, Method: PREINCUBATION (PRIVAL METHOD)): active; positive
mutagenic call (Test System: AMES SALMONELLA TYPHIMURIUM, Strain/Indicator: SV50, Metabolic Activation: RAT, LIVER, S-9, AROCLOR 1254, Method: STANDARD PLATE): inactive; negative
mutagenic call (Test System: AMES SALMONELLA TYPHIMURIUM, Strain/Indicator: TA98(1,8-DNP6), Metabolic Activation: NONE, Method: PREINCUBATION): inactive; negative
mutagenic call (Test System: AMES SALMONELLA TYPHIMURIUM, Strain/Indicator: TA98(1,8-DNP6), Metabolic Activation: NONE, Method: STANDARD PLATE): inactive; negative
mutagenic call (Test System: AMES SALMONELLA TYPHIMURIUM, Strain/Indicator: TA98(1,8-DNP6), Metabolic Activation: PLANT CELLS, Method: PREINCUBATION): active; positive
mutagenic call (Test System: AMES SALMONELLA TYPHIMURIUM, Strain/Indicator: TA98(1,8-DNP6), Metabolic Activation: S-9, Method: STANDARD PLATE): inactive; negative
mutagenic call (Test System: AMES SALMONELLA TYPHIMURIUM, Strain/Indicator: TA98(1,8-DNP6), Metabolic Activation: TOBACCO CELL-FREE TXIMX, Method: PREINCUBATION): inactive; negative
mutagenic call (Test System: AMES SALMONELLA TYPHIMURIUM, Strain/Indicator: TA98(NR), Metabolic Activation: TOBACCO CELL-FREE TXIMX, Method: PREINCUBATION): active; positive
mutagenic call (Test System: AMES SALMONELLA TYPHIMURIUM, Strain/Indicator: TA98, Metabolic Activation: HAMSTER, LIVER, S-9, Method: PREINCUBATION): active; positive
mutagenic call (Test System: AMES SALMONELLA TYPHIMURIUM, Strain/Indicator: TA98, Metabolic Activation: HAMSTER, LIVER, S-9, Method: PREINCUBATION (PRIVAL METHOD)): active; positive
mutagenic call (Test System: AMES SALMONELLA TYPHIMURIUM, Strain/Indicator: TA98, Metabolic Activation: HAMSTER, LIVER, S-9, Method: STANDARD PLATE): active; positive
mutagenic call (Test System: AMES SALMONELLA TYPHIMURIUM, Strain/Indicator: TA98, Metabolic Activation: HUMAN, HEPATOMA CELLS, BENZO[A]ANTHRACENE, Method: PREINCUBATION): active; positive
mutagenic call (Test System: AMES SALMONELLA TYPHIMURIUM, Strain/Indicator: TA98, Metabolic Activation: HUMAN, HEPATOMA CELLS, Method: PREINCUBATION): active; positive
mutagenic call (Test System: AMES SALMONELLA TYPHIMURIUM, Strain/Indicator: TA98, Metabolic Activation: MOUSE, LIVER, S-9, Method: STANDARD PLATE): active; positive
mutagenic call (Test System: AMES SALMONELLA TYPHIMURIUM, Strain/Indicator: TA98, Metabolic Activation: NONE, Method: PREINCUBATION): inactive; negative
mutagenic call (Test System: AMES SALMONELLA TYPHIMURIUM, Strain/Indicator: TA98, Metabolic Activation: NONE, Method: STANDARD PLATE): inactive; negative
mutagenic call (Test System: AMES SALMONELLA TYPHIMURIUM, Strain/Indicator: TA98, Metabolic Activation: PLANT CELLS, Method: PREINCUBATION): active; positive
mutagenic call (Test System: AMES SALMONELLA TYPHIMURIUM, Strain/Indicator: TA98, Metabolic Activation: RAT LIVER S-9, AROCLOR 1254, Method: PREINCUBATION): active; positive
mutagenic call (Test System: AMES SALMONELLA TYPHIMURIUM, Strain/Indicator: TA98, Metabolic Activation: RAT, BLADDER, S-9, PCB, Method: FLUCTUATION TEST): inactive; negative
mutagenic call (Test System: AMES SALMONELLA TYPHIMURIUM, Strain/Indicator: TA98, Metabolic Activation: RAT, LIVER, S-9, AROCLOR 1254, Method: PREINCUBATION): active; positive
mutagenic call (Test System: AMES SALMONELLA TYPHIMURIUM, Strain/Indicator: TA98, Metabolic Activation: RAT, LIVER, S-9, AROCLOR 1254, Method: STANDARD PLATE): active; positive
mutagenic call (Test System: AMES SALMONELLA TYPHIMURIUM, Strain/Indicator: TA98, Metabolic Activation: RAT, LIVER, S-9, PHENOBARBITAL, Method: STANDARD PLATE): active; positive
mutagenic call (Test System: AMES SALMONELLA TYPHIMURIUM, Strain/Indicator: TA98, Metabolic Activation: RAT, LIVER, S-9, Method: PREINCUBATION): active; positive
mutagenic call (Test System: AMES SALMONELLA TYPHIMURIUM, Strain/Indicator: TA98, Metabolic Activation: S-9, Method: STANDARD PLATE): active; positive
mutagenic call (Test System: AMES SALMONELLA TYPHIMURIUM, Strain/Indicator: TA98, Metabolic Activation: TOBACCO CELL-FREE TXIMX, Method: PREINCUBATION): active; positive
mutagenic call (Test System: AMES SALMONELLA TYPHIMURIUM, Strain/Indicator: TA100(NR), Metabolic Activation: TOBACCO CELL-FREE TXIMX, Method: PREINCUBATION): inactive; negative
mutagenic call (Test System: AMES SALMONELLA TYPHIMURIUM, Strain/Indicator: TA100(TN:OAT), Metabolic Activation: TOBACCO CELL-FREE TXIMX, Method: PREINCUBATION): inactive; negative
mutagenic call (Test System: AMES SALMONELLA TYPHIMURIUM, Strain/Indicator: TA100, Metabolic Activation: HUMAN, LIVER, S-9, Method: STANDARD PLATE): active; positive
mutagenic call (Test System: AMES SALMONELLA TYPHIMURIUM, Strain/Indicator: TA100, Metabolic Activation: NONE, Method: PREINCUBATION): inactive; negative
mutagenic call (Test System: AMES SALMONELLA TYPHIMURIUM, Strain/Indicator: TA100, Metabolic Activation: NONE, Method: STANDARD PLATE): inactive; negative
mutagenic call (Test System: AMES SALMONELLA TYPHIMURIUM, Strain/Indicator: TA100, Metabolic Activation: RAT LIVER S-9, AROCLOR 1254, Method: PREINCUBATION): inactive; negative
